Measured values: patent US4086416A, “Septacidin analogs” (Stanford Research Institute, priority 1977, dated 1978)
Entries after “also recorded” stand apart in the source; their conditions may differ. Where two headings read alike, the source gives them in different places.

Assays:
[1] = system: cultured lymphoid leukemia L1210 cells; settings: data from Tong et al. 1976, read-out: Inhibition of Synthesis of DNA, ED50; cited from earlier work
isolated helical DNA [2] = settings: cited from earlier work
[3] = system: cultured lymphoid leukemia L1210 cells; settings: data from Tong et al. 1976, read-out: Inhibition of Synthesis of RNA, ED50; cited from earlier work
[4] = system: cultured lymphoid leukemia L1210 cells; settings: cited from earlier work
[5] = system: lymphocytic leukemia P388 implanted in mice; settings: cited from earlier work
[6] = antitumor activity (test not specified)
[7] = system: cultured lymphoid leukemia L1210 cells; test: inhibition of RNA synthesis in cultured L1210 leukemia cells; assay type: cell-based
Method: (§1) The septacidin analogs 2 and 3 (corresponding to the compounds of Examples I and II, respectively) were tested first in cultured lymphoid leukemia L1210 cells for inhibition of nucleic acid syntheses and for cytotoxicity,by previously reported procedures. A sample of natural septacidin (compound 1) was obtained from the National Cancer Institute and included for comparison. Data on adriamycin (compound 4) are also included. The analogs were then tested, along with 1 and 4, against lymphocytic leukemia P388 implanted in mice, under the auspices of the NCI and according to its protocols which use the increased survival time of treated animals compared to controls as the measure of antitumor efficacy.
(§2) ^b Assay described in G. Tong, W. W. Lee, D. R. Black and D. W. Henry

[8] = system: lymphocytic leukemia P388 implanted in mice; test: antitumor efficacy vs P388 leukemia in mice (increased survival time); assay type: in vivo; settings: for antitumor activity in mouse tests: NCI criteria, doses of 0.5-1.0 mg/kg; for Optimum Antitumor Efficacy, T/C / Optimum Antitumor Dose: P388 leukemia in mice; for Optimum Antitumor Efficacy, T/C: at optimum dose (septacidin 0.50, compounds 2 and 3 1.0 mg/kg), compounds 2 and 3 average from two tests; for Optimum Antitumor Dose: dose producing the highest T/C
Method: as §1
^c Assay described in R. I. Geran, N. H. Greenberg, M. M. MacDonald,
A. M. Schumacker and B. J. Abbott, Cancer Chemother. Rep., Part 3, 3 (No.
2), 9 (1972). Protocol 1.200. Other doses were higher or lower by a facto
of 2. Each compound has 2-4 active doses. Compounds were of borderline
solubility, and some doses were injection as suspensions. Water, water +
Tween 80, or saline + Tween 80 (emul. agent, ICI) were used as vehicles.
By definition, a compound is active if T/C […] 125. For compounds 2
and 3 the T/C is the average from two tests. Optimum dose is the one
producing the highest T/C.

[9] = system: cultured lymphoid leukemia L1210 cells; test: cytotoxicity vs cultured L1210 leukemia cells; assay type: cell-based; settings: for IC50: cultured L1210 leukemia cells, read-out: Cytotoxicity I50
Method: as §1, §2

[10] = system: cultured lymphoid leukemia L1210 cells; test: inhibition of DNA synthesis in cultured L1210 leukemia cells; assay type: cell-based
Method: as §1, §2

[11] = system: cultured lymphoid leukemia L1210 cells; test: in vitro activity in cultured L1210 cells (inhibition of nucleic acid syntheses); assay type: cell-based
Method: as §1, §2

solubility = assay type: physicochemical
isolated helical DNA [12] = test: binding to isolated helical DNA in solution (effect on helix-coil transition temperature)
Text: The in vivo efficacy of adriamycin is much higher, but there are other differences.
as §2
by the modified procedure.

[13] = Mus musculus, cultured L1210 leukemia cells, read-out: Inhibition of Synthesis of RNA, ED50
[14] = in vitro, compared with septacidin (1)
[15] = Mus musculus, cultured L1210 leukemia cells, read-out: Inhibition of Synthesis of DNA, ED50

COc1cccc2c1C(=O)c1c(O)c3c(c(O)c1C2=O)C[C@@](O)(C(=O)CO)C[C@@H]3O[C@H]1C[C@H](N)[C@H](O)[C@H](C)O1 [Adriamycin]
IC50 [1]: 1500 nM
Binding to Isolated Helical DNA in Solution, ΔTm (isolated helical DNA [2]; modified procedure, data from Tong et al. 1976): 13.6 °C
binding to isolated helical DNA in solution (isolated helical DNA [2]; ΔTm): binds strongly
IC50 [3]: 670 nM
cytotoxicity [4]: highly cytotoxic
IC50 ([4]; cultured L1210 leukemia cells, data from Tong et al. 1976, read-out: Cytotoxicity I50): 32 nM
Optimum Antitumor Efficacy, T/C ([5]; P388 leukemia in mice, at 1.0 mg/kg, qd 1-9, data from Tong et al. 1976): 193%
Optimum Antitumor Dose ([5]; P388 leukemia in mice, qd 1-9, data from Tong et al. 1976): 1.0 mg/kg
in vivo efficacy ([5]; adriamycin compared with 2): much higher

CCCCCC(=O)NCC(=O)NC1C(C)OC(Nc2ncnc3[nH]cnc23)C(O)C1O [Example VI, 6-[4,6-Didoexy-4-(caproylglycyl)amino-β-L-glucopyranosylamino]-9H-purine]
antitumor activity [6]: inactive; also recorded: loss of activity was total

CC(C)CCCCCCCCCCCCC(=O)NCC(=O)NC1C(O)C(O)C(Nc2ncnc3nc[nH]c23)OC1C(O)CO (stereo not drawn) [Septacidin]
IC50 ([7]; cultured L1210 cells, corrected for 75% purity, assuming inactive impurities, read-out: Inhibition of Synthesis of RNA, ED50, corrected for purity): 530 nM
IC50 ([7]; cultured L1210 leukemia cells, read-out: Inhibition of Synthesis of RNA, ED50): 700 nM
Optimum Antitumor Dose, corrected for purity ([8]; P388 in mice, qd 1-9, corrected for 75% purity, assuming inactive impurities): 0.38 mg/kg
antitumor activity in mouse tests ([8]; P388 in mice): high antitumor potency
Optimum Antitumor Efficacy, T/C ([8]; qd 1-9): 154%
Optimum Antitumor Dose ([8]; qd 1-9): 0.50 mg/kg
IC50 [9]: > 5000 nM
IC50 ([10]; cultured L1210 cells, corrected for 75% purity, assuming inactive impurities, read-out: Inhibition of Synthesis of DNA, ED50, corrected for purity): 230 nM
IC50 ([10]; cultured L1210 leukemia cells, read-out: Inhibition of Synthesis of DNA, ED50): 300 nM

CC(C)CCCCCCCCCCCCC(=O)NCC(=O)NC1C(C)OC(Nc2ncnc3[nH]cnc23)C(O)C1O [Compound 2, 6-[4,6-Dideoxy-4-(isopalmitoylglycyl)amino-β-L-glucopyranosylamino]-9H-purine]
IC50 [7, 13]: 880 nM
response in the RNA test [7, 14]: a response nearly the same as 1
antitumor activity in mouse tests ([8]; P388 in mice): confirmed activity
Optimum Antitumor Efficacy, T/C ([8]; qd 1-9): 160%
Optimum Antitumor Dose ([8]; qd 1-9): 1.0 mg/kg
antitumor activity [6]: enhanced antitumor activity
potency compared with adriamycin ([6]; comparison of both in vivo and in vitro data): comparable in potency
IC50 ([9]; Mus musculus): > 20000 nM
cytotoxic effects ([9]; at soluble levels): could not be observed at soluble levels
inhibition of nucleic acid synthesis [11]: potent inhibition of nucleic acid synthesis
solubility in CH3OH (solubility): moderately soluble
solubility in H2O or saline (solubility): slightly soluble
Binding to Isolated Helical DNA in Solution, ΔTm (isolated helical DNA [12]): 0.6 °C
binding to isolated helical DNA in solution (isolated helical DNA [12]; ΔTm): binds only weakly
IC50 [10, 15]: 2600 nM
potency in the DNA test [10, 14]: not as potent

CCCCCCCCCCCC(=O)NCC(=O)N[C@@H]1[C@@H](O)[C@H](O)[C@@H](Nc2ncnc3[nH]cnc23)O[C@H]1C [Compound 3, 6-[4,6-Dideoxy-4-(lauroylglycyl)amino-β-L-glucopyranosylamino]-9H-purine]
IC50 [7, 13]: 18000 nM
antitumor activity in mouse tests ([8]; P388 in mice): confirmed activity
Optimum Antitumor Efficacy, T/C ([8]; qd 1-9): 137%
Optimum Antitumor Dose ([8]; qd 1-9): 1.0 mg/kg
efficacy in vivo ([8]; fatty acid shortened from 16 to 12 carbons, compared with 2): slight loss of efficacy in vivo
IC50 ([9]; Mus musculus): > 10000 nM
in vitro activity ([11]; compared with septacidin (1) or analog 2): noticeably less potent; also recorded: decreased activity in vitro
solubility in CH3OH (solubility): moderately soluble
solubility in H2O or saline (solubility): slightly soluble
IC50 [10, 15]: 29000 nM
